Measurements as given in patent publication US4603209A, “Fluorescent indicator dyes for calcium ions” (priority 1984, dated 1986).
Like-named read-outs stand apart in the source and are kept apart here. Blank lines part the entries; values can stand above or below the molecule they belong to.

Legend:
[1] = cited from earlier work
[2] = Ca2+ titration of dye fluorescence in Ca-EGTA buffers; type: binding; conditions: for Kd: read-out: Apparent Kd for Ca^2+
Protocol: The excitation bandwidth was 1.9 nm, the emission was collected at 510 nm with 4.6 nm bandwidth, and the spectra were automatically corrected for excitation lamp and monochromator characteristics using a rhodamine B quantum counter. The titration was done starting with 5 ml of 100 mM KCl, 10 mM KMOPS, 10 mM K2 H2 EGTA, 1 microM fura-2, adjusting the pH to 7.20, recording the spectrum, then discarding 0.5 ml of this solution and replacing with 0.5 ml of 100 mM KCl, 10 mM KMOPS, 10 mM K2 CaEGTA, 1 microM fura-2, readjusting the pH to 7.20, and recording the spectrum which was then in 9 mM K2 H2 EGTA and 1 mM K2 CaEGTA. Subsequent iterations to reach n mM CaEGTA, (10-n) mM EGTA, n=2-10, were done by discarding 5.0/(11-n) ml and replacing with equal volumes of the 10 mM K2 CaEGTA -1 microM fura-2 stock. After n=10 had been reached to give a free Ca^2+ between 10^-4 and 10^-5 M, addition of 1 mM CaCl2 had no further effect on the spectrum. Equality of Ca and EGTA contents in the K2 CaEGTA solution was insured by titration of K2 H2 EGTA with CaCl2 to the potentiometric endpoint measured with a Ca^2+ -selective electrode. EGTA was Fluka Chemical "puriss" grade.
The dye, 6 microM, was titrated in 115 mM KCl, 20 mM NaCl, 10 mM MOPS, 1.115 mM MgCl2, 1.115 mM K2 H2 EGTA, KOH to pH 7.050±0.004, 37° C., to which small aliquots of K2 CaEGTA were added from a micrometer syringe to raise free Ca^2+ to the values labeling each curve, in units of nM unless otherwise specified. Excitation was at 355 nm, and both excitation and emission were set to 5 nm bandwidth. These spectra are not corrected for the emission sensitivity characteristics of the Perkin Elmer MPF-44; in particular the notch at 465 nm is an instrumental artifact. Corrected emission spectra show the low-Ca 485 nm peak to be of very similar amplitude to the high-Ca 404 nm peak when excitation is at 355-356 nm.
Free [Ca^2+ ] levels were controlled by Ca-EGTA buffers assuming apparent dissociation constants for Ca-EGTA of 380 nM at pH 7.00 in 0.1M KCl, 20° C.; 151 nM at pH 7.20 in 0.1M KCl, 20° C.; 214 nM at pH 7.05 in 130 mM KCl, 20 mM NaCl at 37° C.; and 490 nM at pH 7.02 in 225 mM KCl, 25 mM NaCl at 18° C. The first three apparent dissociation constants were calculated from the tables of Martell & Smith (see reference 11) as discussed in referencess 1 and 12. The last value was freshly determined in this study because no appropriate absolute constants were available at the higher ionic strength, and existing estimates in the biological literature (see references 13-17) vary by an unacceptably large range, >0.5 log unit. For this determination we chose the classic and reliable method of pH titration in the presence and absence of excess metal ion (see references 18). Details are included in the METHODS OF SYNTHESIS section, supra.
Dissociation constants for the new indicators disclosed herein, as exemplified by chelators stil-1, stil-2, indo-1, fura-1, fura-2 and fura-3 (see Table I, infra), are in the range 100-300 nM at ionic strengths near 0.1 to 0.15. Such values are close to the dissociation constant (110 nM) of the parent compound BAPTA (see reference 6), showing that the substituents that make up the rest of the chromophores are only slightly electron-withdrawing. […] A considerable decrease in Ca^2+ binding strength is observed, to an apparent dissociation constant of 760 nM. Such a strong dependence on ionic strength is not surprising for the reaction of a tetravalent anion with a divalent cation.
where Kd is the effective dissociation constant. The fluorescence ratio R is the ratio [formula] Solving for [Ca^2+ ] yields the calibration equation: [formula] Note that FA1 /FA2 is simply the limiting value that R can have at zero [Ca^2+ ] and so may be considered Rmin, while FB1 /FB2 is the analogous limiting Rmax that the ratio has at saturating [Ca^2+ ]. […]

[3] = Mg2+ titration of dye excitation spectrum in Mg-EGTA buffers; type: binding; conditions: 0.1-0.15M ionic strength, read-out: Mg^2+ dissociation constant
Protocol: An excitation spectrum was recorded of 2 microM fura-2 in 2.5 ml 32 mM KCl, 1 mM EGTA, 10 mM MOPS, adjusted with KOH to pH 7.18 while thermostatted at 20° C. Then 25 microliters of this solution was discarded and replaced by 25 microliters of a solution containing 2 microM fura-2, 104.8 mM MgCl2, 5.8 mM EGTA, 10 mM MOPS, adjusted with KOH to pH 7.18. Since both stocks had 1 mM free EGTA but the latter had 100 mM free Mg, the 99:1 v/v composite went to 1.0 mM free Mg^2+. Further iterations attained 2, 5, 10, and 20 mM free Mg^2+ by successively discarding 25.25, 76.53, 131.6, and 277.8 microliters of the mixture and replacing each with an equal volume of the high-Mg stock. Emission was collected at 510 nm, 4.6 nm bandpass, and excitation 0.9 nm bandpass.
Free [Mg^2+ ] was likewise controlled by Mg-EGTA buffers assuming an apparent dissociation constant for Mg-EGTA of 21 mM at pH 7.18 in 130 mM KCl at 20°, 8.96 mM at pH 7.05 in 130 mM KCl, 20 mM NaCl at 37°, and 99 mM at pH 7.02 in 225 mM KCl, 25 mM NaCl at 18°. Again, the last value was freshly determined in this study.
Binding constants for competing cations were most thoroughly explored for fura-2. […] Therefore fura-2 binds Mg^2+ less strongly than does quin2, whose Mg^2+ dissociation constants are about 1 mM and 2 mM respectively at 37° and ca. 22° (see references 6 and 7). […]

[4] = Zn2+ titration of dye fluorescence in Zn-EGTA buffer, Hill plots; type: binding; conditions: for pKZn / Kd: 120 mM KCl, pH 7.12, room temperature; for Kd: read-out: dissociation constant for zinc
Protocol: Heavy metal binding constants were measured as follows. Affinities of stil-1 and fura-2 for Zn^2+ were measured by titrating 1-2 microM dye in 120 mM KCl, 5 mM K2 H2 EGTA, 10 mM MOPS, 5 mM Tris, with 1M ZnCl2 dispensed from a micrometer syringe. […] (see reference 11).
Binding of fura-2 to some of the physiologically more important heavy divalent metals was also briefly examined. Both stil-1 and fura-2 bind zinc with dissociation constants around 1.6-2 nM (pKZn 8.6-8.8). […] Curiously Zn^2+ shifts the fura-2 spectrum the same way that Ca^2+ does, whereas Zn^2+ quenches quin2 and therefore acts oppositely to Ca^2+. Fura-2 is also better than quin2 in rejecting Mn^2+, the Mn^2+ :Ca^2+ preferences being 42-fold and 510-fold respectively (see reference 26). […] A more precise estimate was prevented by experimental scatter, which may reflect more complicated stoichiometry than 1:1 or imperfectly anaerobic conditions. Both Mn^2+ and Fe^2+ quench fura-2 as expected for metals with many unpaired electrons. For comparison, EGTA prefers Zn^2+, Mn^2+, and Fe^2+ to Ca^2+, by factors of ca. 50, ca. 20, and ca. 8-fold respectively (see reference 11).

[5] = Direct competition between Mn2+ and Ca2+, quenching of dye fluorescence; type: binding; conditions: 100 mM KCl, 10 mM KMOPS, pH 7.2, room temperature
Protocol: (§1) Since Mn^2+ and Fe^2+ quench fura-2, the affinities for these ions relative to Ca^2+ could be assessed by direct competition between the metal ions each in stoichiometric excess. […] Fluorescences of 0.5 microM fura-2 at room temperature were recorded in solutions containing 100 mM KCl, 10 mM KMOPS, pH 7.2. One series also contained 0, 0.1, or 1 mM MnSO4 and 0, 1.1, 2.2, 4.4, or 8.8 mM CaCl2; another series had 2 mM CaCl2 and 0, 0.1, 0.2, 0.5, 1, 2 mM Fe(NH4)2 (SO4)2; and a third series with 0.2 mM Fe(NH4)2 (SO4)2 and 0, 0.2, 0.4, 0.8, 2, 4, and 8 mM CaCl2. Measurements with Fe(II) were made in a cuvet sealed by a septum and continually bubbled with nitrogen; the solutions stayed clear and nearly colorless until the septum was removed after the end of the experiment, whereupon deposition of yellow Fe(OH)3 followed rapidly.
(§2) Binding of fura-2 to some of the physiologically more important heavy divalent metals was also briefly examined. Both stil-1 and fura-2 bind zinc with dissociation constants around 1.6-2 nM (pKZn 8.6-8.8). […] Curiously Zn^2+ shifts the fura-2 spectrum the same way that Ca^2+ does, whereas Zn^2+ quenches quin2 and therefore acts oppositely to Ca^2+. Fura-2 is also better than quin2 in rejecting Mn^2+, the Mn^2+ :Ca^2+ preferences being 42-fold and 510-fold respectively (see reference 26). […]

[6] = Direct competition between Fe2+ and Ca2+, quenching of dye fluorescence; type: binding; conditions: 100 mM KCl, 10 mM KMOPS, pH 7.2, under nitrogen
Protocol: as §1, §2

[7] = cited from earlier work; remark: listed apart in the source
[8] = reference 26; cited from earlier work
[9] = reference 26; cited from earlier work; remark: listed apart in the source
[10] = 115 mM KCl, 20 mM NaCl, 10 mM KMOPS, pH 7.05, 1 mM free Mg^2+, 37° C.

SMILES: O=C(O)CN(CC(=O)O)c1ccccc1OCCOc1ccccc1N(CC(=O)O)CC(=O)O [BAPTA, 1,2-bis(2-aminophenoxy)ethane N,N,N',N'-tetraacetic acid]
Kd ([1]; parent compound, reference 6, read-out: dissociation constant (Ca^2+)): 0.11 µM
Kd ([1]; reference 6, read-out: Kd (Ca^2+)): 0.1 µM

Kd [2, 10]: 0.107 µM
SMILES: Cc1ccc(N(CC(=O)O)CC(=O)O)c(OCCOc2cc3cc(-c4ccc(C(=O)O)cc4)oc3cc2N(CC(=O)O)CC(=O)O)c1 [fura-1, 1-(2-(4-carboxyphenyl)-6-amino-benzofuran-5-oxy)-2-(2'-amino-5'-methylphenoxy)ethane-N,N,N',N'-tetraacetic acid]

Kd ([3]; 20°): ~9800 µM
Kd ([3]; 37° C.): ~5600 µM
pKZn [4]: 8.6-8.8
Kd [4]: 0.0016 to 0.002 µM
Fe^2+ binding strength relative to Ca^2+ [6]: between three and ten time
SMILES: Cc1ccc(N(CC(=O)O)CC(=O)O)c(OCCOc2cc3cc(-c4ncc(C(=O)O)o4)oc3cc2N(CC(=O)O)CC(=O)O)c1 [fura-2, 1-(2-(5'-carboxyoxazol-2'-yl)-6-aminobenzofuran-5-oxy)-2-(2'-amino-5'-methylphenoxy)ethane-N,N,N',N'-tetraacetic acid]
Zn^2+:Ca^2+ preference [4]: two orders of magnitude
Mn^2+:Ca^2+ preference [5]: 42 fold

Kd [2, 10]: 0.14 µM
SMILES: Cc1ccc(N(CC(=O)O)CC(=O)O)c(OCCOc2cc3cc(-c4ccc(C#N)cc4)oc3cc2N(CC(=O)O)CC(=O)O)c1 [fura-3, 1-(2-(4-cyanophenyl)-6-aminobenzofuran-5-oxy)-2-(2'-amino-5'-methylphenoxy)ethane-N,N,N',N'-tetraacetic acid]

Kd from ratio calibration equation 5 ([2]; FIG. 4 data, emission 400 nm / 490 nm, 115 mM KCl, 20 mM NaCl, pH 7.050, 37° C.): 0.25 µM
SMILES: Cc1ccc(N(CC(=O)O)CC(=O)O)c(OCCOc2cc(-c3cc4ccc(C(=O)O)cc4[nH]3)ccc2N(CC(=O)O)CC(=O)O)c1 [indo-1, 1-(2-amino-5-[6-carboxyindolyl-2]-phenoxy)-2-(2'-amino-5'-methylphenoxy)ethane-N,N,N',N'-tetraacetic acid]

SMILES: COc1cc(N(CC(=O)O)CC(=O)O)c2nc(COc3cc(C)ccc3N(CC(=O)O)CC(=O)O)ccc2c1 [quin-2]
Kd ([1]; 100 mM KCl, 20° C., pH 7.1-7.2, data taken from reference 4, read-out: Apparent Kd for Ca^2+): 0.08 µM
Kd ([7]; 37°, references 6 and 7, read-out: Mg^2+ dissociation constant): ~1000 µM
Kd ([7]; background statement, read-out: dissociation constant for Mg^2+): 1000 to 2000 µM
Kd ([7]; ca. 22°, references 6 and 7, read-out: Mg^2+ dissociation constant): ~2000 µM
Zn^2+:Ca^2+ preference [8]: 3.5 orders of magnitude
Mn^2+:Ca^2+ preference [9]: 510 fold

Kd ([2]; 100 mM KCl, 20° C., pH 7.1-7.2): 0.132 µM
Kd [2, 10]: 0.2 µM
pKZn [4]: 8.6-8.8
Kd [4]: 0.0016 to 0.002 µM
SMILES: Cc1ccc(N(CC(=O)O)CC(=O)O)c(OCCOc2cc(/C=C/c3ccc(C(=O)O)cc3)ccc2N(CC(=O)O)CC(=O)O)c1 [stil-1]
Zn^2+:Ca^2+ preference [4]: two orders of magnitude

Kd ([2]; 100 mM KCl, 37° C., pH 7.08, cis-trans mixture as saponified): 0.224 µM
SMILES: Cc1ccc(N(CC(=O)O)CC(=O)O)c(OCCOc2cc(/C=C/c3ccc(S(=O)(=O)N(C)C)cc3)ccc2N(CC(=O)O)CC(=O)O)c1 [stil-2]
